The results in this text go back to US8354106B2, “Antibodies against HMGB1 and fragments thereof” (The Feinstein Institute for Medical Research, priority 2005, dated 2013).

This test relates to murine bone marrow-derived dendritic cells (BM-DCs). Kind of test: Cytokine/chemokine secretion by murine bone marrow-derived dendritic cells (ELISA). The note with it: for IL-1β secretion / IL-2 secretion / IL-5 secretion / IL-6 secretion / IL-8 secretion / IL-10 secretion / IL-12 secretion / IL-18 secretion / TNFα secretion: MURINE DC, ELISA 48 h after exposure, relative to untreated cells; for IL-1β secretion / IL-2 secretion / IL-5 secretion / IL-6 secretion / IL-8 secretion / IL-10 secretion / IL-12 secretion / IL-18 secretion / TNFα secretion / secretion of IL-1β / secretion of IL-2 / secretion of IL-8 / secretion of IL-5 / secretion of IL-18 / secretion of TNF-α / secretion of IL-12 (p70): peptides 200 μg/ml, HMGB1-Bx 50 μg/ml; for cytokine secretion by murine BM-DCs / secretion of IL-1β / secretion of IL-2 / secretion of IL-8 / secretion of IL-5 / secretion of IL-18 / secretion of TNF-α / secretion of IL-12 (p70): murine BM-DCs; for secretion of IL-1β: FIG. 2A; for secretion of IL-1β / secretion of IL-2 / secretion of IL-8 / secretion of IL-5 / secretion of IL-18 / secretion of TNF-α / secretion of IL-12 (p70): 48 h; for secretion of IL-2: FIG. 2C; for secretion of IL-8: FIG. 2D; for secretion of IL-5: FIG. 2E; for secretion of IL-18: FIG. 2F; for secretion of TNF-α: FIG. 2G; for secretion of IL-12 (p70): FIGS. 2B, 2H. More on the design: key to TNFα secretion / IL-18 secretion / IL-8 secretion / IL-10 secretion / IL-2 secretion / IL-1β secretion / IL-5 secretion / IL-6 secretion / IL-12 secretion: “+” indicates an increase; “−” indicates no change relative to untreated cells (medium). In kind it is cell-based, mouse. How it is done: Bone marrow-derived DCs (BM-DCs) were generated using modifications of the original method described by Inaba, et al. (J. Exp. Med. 1 76:1693-1702 (1992)). In brief, bone marrow suspensions were incubated with red cell lysis buffer (PUREGENE™ RBC Lysis Solution, Gentra Systems, Minneapolis, Minn.) to remove red blood cells. After washing in media, lymphocytes and Ia-positive cells were killed with a cocktail of monoclonal antibodies (mAbs) and rabbit complement for 60 min at 37° C. The mAbs that were used were GK1.5 anti-CD4, TIB211 anti-CD8, TIB 120 anti-Ia, and TIB 146 anti B220 (these mAbs were kindly provided by Dr. Ralph Steinman). The cells were subsequently cultured in media containing 5% FCS and 10 ng/ml recombinant mouse GM-CSF (R&D Systems, Minneapolis, Minn.) for 7 days. For some experiments, the cells were further purified at day 7 using CD11c^+-microbeads (Miltenyi Biotech., Auburn, Calif.), according to the manufacturer's instructions.
Recombinant HMGB1-B box domain (HMGB1-Bx) was expressed in Escherichia coli and purified as described by Li, et al. (Mol. Med. 9:37-45; J. Immunol. Methods 289:211-223 (2004)). Purified HMGB1-Bx contained trace amounts of LPS (19 pg LPS/μg HMGB1-Bx) as measured by the chromogenic Limulus amebocyte lysate assay (BioWhittacker Inc, Walkersville, Md.). All experiments using HMGB1-Bx, as well as the HMGB1 peptides, were performed in the presence of polymyxin B (200 U/ml) to neutralize the amount of contaminating LPS in the HMGB1-Bx and peptide preparations. We have previously shown that the DC stimulatory capacity of HMGB1-Bx requires an intact tertiary structure and is not due to contaminating amounts of LPS, as trypsinization abolished HMGB1-Bx activity (Messmer, et al., J. Immunol. 173: 307-313 (2004); the entire teachings of which are incorporated herein by reference).
Secreted cytokine/chemokine levels were measured by ELISA (Pierce Boston Technology Center, SearchLight™ Proteome Arrays Multiplex Sample Testing Services, Woburn, Mass.) 48 h after addition of the various peptides. Polymyxin B (200 U/ml) was added to all cultures, except those containing LPS, before the stimuli were added. Immature monocyte-derived human dendritic cells (DCs) and immature bone-marrow derived murine dendritic cells (BM-DCs) were cultured either in the presence of HMGB1 peptides (200 μg/ml), whose sequences map to different regions of the HMGB1 protein (see Table 1), the entire HMGB1 B-box domain (HMGB1-Bx) (50 μg/ml), or LPS (100 ng/ml). Untreated cells (medium) were tested as a control. Each peptide was named according to the corresponding position of its first amino acid within the full-length HMGB1 sequence. All peptides were N-terminally biotinylated except “Hp-106 (non bio)”.
In general terms: An ELISA detects its analyte on a solid surface through an enzyme-linked reagent.

“Also recorded” adds a separate entry of the source. Where no end group is shown, it is not given here. The star is where a group is joined. Biotin = O=C1N[C@H]2[C@H](CS[C@H]2CCCCC(=O)*)N1

Consider YAFFVQTCREEHIKKHPD [Hp-16], for which the IL-1β secretion result is on record as “+”, the IL-2 secretion result is on record as “+”, the IL-5 secretion result is given as “+” and the IL-6 secretion entry is reported as “−”. Also, the IL-8 secretion entry is “−”, the IL-10 secretion entry is on record as “−”, the IL-12 secretion entry is on record as “+” and the IL-18 secretion result is given as “+”. Moreover, the TNFα secretion entry is “−”, the “cytokine secretion by murine BM-DCs” value is on record as “enhanced cytokine secretion; also recorded: stimulated cytokine secretion”, the “secretion of IL-1β” value is “enhanced secretion” and the “secretion of IL-2” value is given as “enhanced secretion”. In addition, the “secretion of IL-8” value was “only Hp-106 enhanced secretion”, the “secretion of IL-5” value was “enhanced secretion”, the “secretion of IL-18” value is listed as “enhanced secretion” and the “secretion of TNF-α” value is recorded as “only Hp-106 enhanced secretion”. In addition, the “secretion of IL-12 (p70)” value is recorded as “enhanced secretion”.

On to “CSEYRPKIKGEHPGLSIG [Hp-106] (Biotin-CSEYRPKIKGEHPGLSIG; listed as Homo sapiens)”, for which the IL-1β secretion entry is “+”, the IL-2 secretion entry is reported as “+”, the IL-5 secretion result is listed as “+” and the IL-6 secretion result is reported as “−”. For the same sequence, the IL-8 secretion result is given as “+”, the IL-10 secretion result was “−”, the IL-12 secretion result was “+” and the IL-18 secretion entry is on record as “+”. Also, the TNFα secretion entry was “+”, the “cytokine secretion by murine BM-DCs” value was “induced cytokine secretion by murine BM-DCs; also recorded: high levels of cytokine secretion”, the “secretion of IL-1β” value is on record as “enhanced secretion” and the “secretion of IL-2” value is “enhanced secretion”. In addition, the “secretion of IL-8” value is on record as “enhanced secretion”, the “secretion of IL-5” value is reported as “enhanced secretion”, the “secretion of IL-18” value was “enhanced secretion” and the “secretion of TNF-α” value is recorded as “enhanced secretion”. Moreover, the “secretion of IL-12 (p70)” value was “enhanced secretion”.
